Measured values as given in a compilation of properties of binary mixtures (doi:10.1007/s10953-013-9990-0).

Test: xn = mol fraction of the nth substance listed
Conditions: 101 kPa

CCCC[N+]1(C)CCCC1.O=S(=O)([N-]S(=O)(=O)C(F)(F)F)C(F)(F)F + CC(C)O
speed of sound [m/s]
Conditions	298.15 K	303.15 K	308.15 K
x2 = 0	1269.3	–	1247.1
x2 = 0.0593	1264.9	1253.7	1243.5
x2 = 0.1319	–	1248.7	1237.4
x2 = 0.2344	1250.8	1239.1	–
x2 = 0.3929	1234.8	1222.9	1211.2
x2 = 0.4935	1222.3	1210.2	1198.1
x2 = 0.5927	1207.5	–	1182.9
x2 = 0.718	1184.1	1171.2	1158.4
x2 = 0.8015	1165.1	1151.8	1138.5
x2 = 0.9018	1143	1129.1	1115.9
x2 = 0.9491	1138.1	1122.5	1106.8

CCCC[n+]1cccc(C)c1.O=S(=O)([N-]S(=O)(=O)C(F)(F)F)C(F)(F)F + CC(C)O
speed of sound [m/s]
Conditions	298.15 K	303.15 K	308.15 K
x2 = 0	1248.3	1237.1	1226
x2 = 0.0534	1245.3	1234.1	1222.2
x2 = 0.1034	–	1231	1219.8
x2 = 0.1577	–	1227.4	1216.1
x2 = 0.1756	1237	1225.7	1214.3
x2 = 0.3062	1227.4	1215.8	1204.2
x2 = 0.3957	1220.8	1209	1197.1
x2 = 0.51	1208.6	1197.3	1185.3
x2 = 0.6002	1197.7	1185.3	1173
x2 = 0.7046	1182.1	1169.3	1156.5
x2 = 0.8006	–	–	1135.4
x2 = 0.8988	–	1129.5	1115.2

CC(C)O + CCCC[N+]1(C)CCCC1.O=S(=O)([N-]S(=O)(=O)C(F)(F)F)C(F)(F)F
x1 = 1
Conditions	speed of sound [m/s]
298.15 K	1139.6
303.15 K	1122
308.15 K	1104.4

CCCO + CCCC[N+]1(C)CCCC1.O=S(=O)([N-]S(=O)(=O)C(F)(F)F)C(F)(F)F
x1 = 1
Conditions	speed of sound [m/s]
298.15 K	1206.4
303.15 K	1189.3

CCO + CCCC[N+]1(C)CCCC1.O=S(=O)([N-]S(=O)(=O)C(F)(F)F)C(F)(F)F
x1 = 1
Conditions	speed of sound [m/s]
303.15 K	1126.7
308.15 K	1109.8

CC(C)O + CCCC[n+]1cccc(C)c1.O=S(=O)([N-]S(=O)(=O)C(F)(F)F)C(F)(F)F
x1 = 1
Conditions	speed of sound [m/s]
298.15 K	1139.6
303.15 K	1122

CCCO + CCCC[n+]1cccc(C)c1.O=S(=O)([N-]S(=O)(=O)C(F)(F)F)C(F)(F)F
x1 = 1
Conditions	speed of sound [m/s]
298.15 K	1206.4
303.15 K	1189.3
308.15 K	1172.3

CCO + CCCC[n+]1cccc(C)c1.O=S(=O)([N-]S(=O)(=O)C(F)(F)F)C(F)(F)F
x1 = 1
Conditions	speed of sound [m/s]
298.15 K	1143.6
303.15 K	1126.7
308.15 K	1109.8

CCCC[N+]1(C)CCCC1.O=S(=O)([N-]S(=O)(=O)C(F)(F)F)C(F)(F)F + CCCO
speed of sound [m/s]
Conditions	x2 = 0	x2 = 0.0545	x2 = 0.0931	x2 = 0.1903	x2 = 0.2935	x2 = 0.3972	x2 = 0.5916	x2 = 0.7837	x2 = 0.8975	x2 = 0.9472
298.15 K	1269.3	1267	1264.9	1259.7	–	1246	1230	1201.2	1190.9	–
303.15 K	1258.1	–	1253.5	1248.2	1241.7	1234.2	–	1188	1176.4	1178
308.15 K	1247.1	1244.4	1242.3	1236.9	1230.2	1222.5	1206	1175	1162	1162.7

CCCC[n+]1cccc(C)c1.O=S(=O)([N-]S(=O)(=O)C(F)(F)F)C(F)(F)F + CCCO
speed of sound [m/s]
Conditions	298.15 K	303.15 K	308.15 K
x2 = 0	1248.3	1237.1	1226
x2 = 0.0431	–	1235.4	1224.3
x2 = 0.0889	1244.5	1233.4	1222.3
x2 = 0.1564	1241.8	–	1219.1
x2 = 0.2913	–	1223.2	1211.8
x2 = 0.3788	1229.5	1217.9	1206.3
x2 = 0.5665	1215.6	1203.5	1191.5
x2 = 0.5901	–	1201.4	1189.3
x2 = 0.6913	1204	1191.4	–
x2 = 0.8006	1194.1	1180.8	1167.7
x2 = 0.8947	1189.3	1174.9	–
x2 = 0.9467	1193.4	1178	1162.7

CCCC[N+]1(C)CCCC1.O=S(=O)([N-]S(=O)(=O)C(F)(F)F)C(F)(F)F + CCO
speed of sound [m/s]
Conditions	298.15 K	303.15 K	308.15 K
x2 = 0	1269.3	1258.2	1247.1
x2 = 0.0586	1266.6	1255.3	1244.2
x2 = 0.1981	1258.6	1247.2	1235.9
x2 = 0.2834	1252.8	1241.3	1229.9
x2 = 0.4449	1238.4	1226.6	1215
x2 = 0.5133	1230.8	1218.9	1207.1
x2 = 0.6012	1219.2	–	–
x2 = 0.7078	–	1189.2	1176.8
x2 = 0.7929	1184.8	1171.6	–
x2 = 0.8997	1158.2	1144	1129.8
x2 = 0.9492	–	1133.2	–

CCCC[n+]1cccc(C)c1.O=S(=O)([N-]S(=O)(=O)C(F)(F)F)C(F)(F)F + CCO
speed of sound [m/s]
Conditions	298.15 K	303.15 K	308.15 K
x2 = 0	–	1237.1	–
x2 = 0.0533	–	–	1223.8
x2 = 0.0924	1244.5	1233.1	–
x2 = 0.1963	1239.3	1227.9	1216.6
x2 = 0.3011	1233.2	1221.7	1210.3
x2 = 0.3959	1226.5	1214.9	1203.4
x2 = 0.4982	–	1206	1194.3
x2 = 0.599	–	–	1183.2
x2 = 0.6829	1195.9	1183.6	1171.3
x2 = 0.7355	1187.7	1175.2	–
x2 = 0.8008	1176.4	1163.2	1150.3
x2 = 0.8991	1156.9	1142.8	1128.7
x2 = 0.9436	1149.9	1134.8	1119.9
